Assay [1] concerns the target T1, QscR (Pseudomonas aeruginosa, UniProt G3XD77). It is filed as cell-based. To be noted: for Activation (%): 100% = activity of 3OC12-HSL.
Assay [2] concerns the target T1, QscR. The note with it: DNA binding of QscR with ligand; Eqn 5.
Assay [3] concerns the target LasR (Pseudomonas aeruginosa, UniProt P25084). The assay is described as follows: LasR agonism/antagonism assay, E. coli reporter strain. It is filed as cell-based. The note with it: Table S2 (supplement not shown).

Chain of LasR (P25084 whole entry): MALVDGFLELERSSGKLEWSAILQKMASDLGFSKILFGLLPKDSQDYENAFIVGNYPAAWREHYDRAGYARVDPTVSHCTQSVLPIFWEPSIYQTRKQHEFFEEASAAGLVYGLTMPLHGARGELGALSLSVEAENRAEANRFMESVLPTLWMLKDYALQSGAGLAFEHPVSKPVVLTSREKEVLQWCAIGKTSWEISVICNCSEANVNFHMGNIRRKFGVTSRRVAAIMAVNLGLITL

Turning to `CCCCCCCCCC(=O)CC(=O)N[C@H]1CCOC1=O` [3OC12-HSL, N-(3-oxododecanoyl) L-homoserine lactone], the “Activation (%)” value in assay [1] is 100%. In assay [2], the Hill coefficient (commonly the slope factor of the fitted curve) was found to be 1.7 ± 0.4.

In the case of `O=C(CCCOc1ccc(Cl)cc1)NC1CCOC1=O` (stereo not drawn) [CL], the “Activation (%)” value in assay [1] was 86%. Moreover, the response in assay [1] (E. coli JLD271 QscR reporter) was half-maximal at 16 nM (EC50). In assay [2], this compound came in with a Hill coefficient of 1.9 ± 0.3. The “activity on LasR in cell-based reporter assays” value in assay [3] is reported as “inhibited”.

Values taken from publication PMC5914528 (Molecular microbiology, 2018).
